Source: paper PMC10537280, “Chemo-/Regio-Selective Synthesis of Novel Functionalized Spiro[pyrrolidine-2,3′-oxindoles] under Microwave Irradiation and Their Anticancer Activity” (Molecules, 2023)
Read-outs that look alike come from different tables or passages of the source.

Assays:
[1] = test system: human HepG2 cancer cell lines; experiment: MTT cytotoxicity assay, liver cancer HepG2 cells; format: cell-based; conditions: for IC50: MTT, 72 h, 0.19–100 μM, means of at least three independent experiments in duplicates, read-out: HepG2 Cells IC50
Description: (§1) Adenocarcinomic human alveolar basal epithelial (A549) and human hepatoma (HepG2) cancer cell lines, immortalized normal human liver (LO2), human bronchial epithelial (BEAS-2B cells were purchased from [NT], Manassas, VA, USA). […] Invitrogen, Waltham, MA, USA). All cells were incubated at 37 °C in a 5% humidified CO2 incubator). All test compounds were dissolved in DMSO at a final concentration of 50 mM and stored at -20 °C before use. Cytotoxicity was assessed by the MTT (5 mg/mL) assay, as described previously. Briefly, 5 × 10^3 cells per well were seeded in 96-well plates before drug treatments. […] Cells without drug treatment were used as controls. Subsequently, 10 μL of 5 mg/mL MTT solution was added to each well and incubated at 37 °C for 4 h, followed by the addition of 100 μL solubilization buffer (12 mM HCl in a solution of 10% SDS) and overnight incubation. The absorbance, A570 nm, was then determined in each well on the next day. The percentage of cell viability was calculated using the expression: % viability = Atreated/Acontrol × 100, and was given as cytotoxicity (Table 2 and Table 3; […]

[2] = test system: human lung A549 cancer cell lines; experiment: MTT cytotoxicity assay, lung cancer A549 cells; format: cell-based; conditions: Homo sapiens, A549; MTT, 72 h, 0.19–100 μM; means of at least three independent experiments in duplicates; read-out: A549 Cells IC50
Description: as §1

[3] = test system: immortalized liver LO2 normal cell lines; experiment: MTT cytotoxicity assay, normal liver LO2 cells; format: cell-based; conditions: Homo sapiens, L02; MTT, 72 h, 0.19–100 μM; normal liver cells; read-out: LO2 Cells IC50
Description: as §1

[4] = test system: immortalized lung BEAS-2B normal cell lines; experiment: MTT cytotoxicity assay, normal lung BEAS-2B cells; format: cell-based; conditions: Homo sapiens, MTT, 72 h, 0.19–100 μM, normal lung cells, read-out: BEAS-2B Cells IC50
Description: as §1

[5] = test system: human lung A549 cancer cell lines; set-up: method as in PMID 24063429; conditions: paclitaxel reference value; ref [80]; read-out: A549 Cells IC50; cited from earlier work
[6] = test system: human HepG2 cancer cell lines; conditions: paclitaxel reference value; ref [82]; read-out: HepG2 Cells IC50; cited from earlier work
[7] = test system: immortalized liver LO2 normal cell lines; conditions: paclitaxel reference value; ref [82]; read-out: LO2 Cells IC50; cited from earlier work
[8] = test system: immortalized lung BEAS-2B normal cell lines; set-up: method as in PMID 24063429; conditions: paclitaxel reference value; ref [80]; read-out: BEAS-2B Cells IC50; cited from earlier work

SMILES | IC50 ([1]; Homo sapiens, HepG2, 72 h) [µM] | S.I. Selectivity index liver (IC50 normal cells/IC50 cancer cells) ([1]; LO2 IC50 / HepG2 IC50) | IC50 [1] [µM] | IC50 [2] [µM] | melting point [°C] | IC50 [3] [µM] | IC50 [4] [µM] | IC50 [5] [µM] | IC50 [6] [µM] | IC50 [7] [µM] | IC50 [8] [µM]
COc1ccc(C2C([N+](=O)[O-])C3CCCN3C23C(=O)Nc2ccc(Br)cc23)cc1OCc1ccccc1 (stereo not drawn) [Compound 4q, 2′-(3-(benzyloxy)-4-methoxyphenyl)-5-bromo-1′-nitro-1′,2′,5′,6′,7′,7a′-hexahydrospiro[indoline-3,3′-pyrrolizin]-2-one] | 85.6 | 0.54 | 86.5 | 47.9 | 98 to 100 | 46.8 | > 100 |  |  |  | 
CC(=O)O[C@H]1C(=O)[C@@]2(C)[C@H]([C@H](OC(=O)c3ccccc3)[C@]3(O)C[C@H](OC(=O)[C@H](O)[C@@H](NC(=O)c4ccccc4)c4ccccc4)C(C)=C1C3(C)C)[C@]1(OC(C)=O)CO[C@@H]1C[C@@H]2O [Paclitaxel] |  |  |  |  |  |  |  | 0.003 | 0.19 ± 0.4 | < 0.1 | 0.1
COc1ccc(OC)c(C2C([N+](=O)[O-])C3CCCN3C23C(=O)Nc2ccccc23)c1 (stereo not drawn) [Compound 4s, 2′-(2,5-dimethoxyphenyl)-1′-nitro-1′,2′,5′,6′,7′,7a′-hexahydrospiro[indoline-3,3′-pyrrolizin]-2-one] | > 100 |  |  | > 100 | 174 to 176 | > 100 | > 100 |  |  |  | 
COc1cc(C2C([N+](=O)[O-])C3CCCN3C23C(=O)Nc2ccccc23)ccc1OCc1ccccc1 (stereo not drawn) [Compound 4n, 2′-(4-(benzyloxy)-3-methoxyphenyl)-1′-nitro-1′,2′,5′,6′,7′,7a′-hexahydrospiro[indoline-3,3′-pyrrolizin]-2-one] | > 100 |  |  | > 100 | 66 to 68 | > 100 | > 100 |  |  |  | 
COc1ccc(C2C([N+](=O)[O-])C(CC(C)C)NC23C(=O)Nc2ccccc23)cc1OC (stereo not drawn) [Compound 4h, 3′-(3,4-dimethoxyphenyl)-5′-isobutyl-4′-nitrospiro[indoline-3,2′-pyrrolidin]-2-one] | > 100 |  |  | > 100 | 73 to 75 | > 100 | > 100 |  |  |  | 
COc1ccc(OC)c(C2C([N+](=O)[O-])C3CCCN3C23C(=O)Nc2ccc(Br)cc23)c1 (stereo not drawn) [Compound 4u, 5-bromo-2′-(2,5-dimethoxyphenyl)-1′-nitro-1′,2′,5′,6′,7′,7a′-hexahydrospiro[indoline-3,3′-pyrrolizin]-2-one] | > 100 |  |  | > 100 | 190 to 192 | > 100 | > 100 |  |  |  | 
COc1ccc(C2C([N+](=O)[O-])C(C)NC23C(=O)Nc2ccccc23)cc1OC (stereo not drawn) [Compound 4i, 3′-(3,4-dimethoxyphenyl)-5′-methyl-4′-nitrospiro[indoline-3,2′-pyrrolidin]-2-one] | > 100 |  |  | > 100 | 165 to 167 | > 100 | > 100 |  |  |  | 
